Measurements as given in US11229657B2, “Targeting hypoxic cancer stem cells (CSCs) with doxycycline: implications for improving anti-angiogenic therapy” (LUNELLA BIOTECH, INC., priority 2017, dated 2022).
Read-outs that look alike come from different tables or passages of the source. Blank lines part the entries; values can stand above or below the compound they belong to.

What was measured:
Type in all cases: cell-based
MCF7 cells [1] = test: Mammosphere formation assay (CSC activity/propagation); conditions: for IC50: Homo sapiens, MCF7, Valproic acid-augmented conditions, read-out: IC-50, Valproic acid-augmented CSC propagation; for IC50 / Valproic acid-augmented CSC propagation (mammosphere formation): FIG. 12C; for Valproic acid-augmented CSC propagation (mammosphere formation): glycolysis inhibitors; for basal and Valproic acid-augmented CSC propagation (mammosphere formation): FIG. 12A-B
Protocol: Briefly, a single cell suspension of MCF7 cells previously exposed to normoxia (21% O2) or hypoxia (1% O2) for 6 h, 72 h or 96 h was prepared using enzymatic (lx Trypsin-EDTA, Sigma Aldrich) and manual disaggregation (25-gauge needle). Cells were plated at a density of 500 cells/cm^2 in mammosphere medium (DMEM-F12/B27/20-ng/ml EGF/PenStrep) in nonadherent conditions, in culture dishes coated with (2-hydroxyethylmethacrylate) (poly-HEMA, Sigma), in the presence of treatments. Cells were grown for 5 days and maintained in a humidified incubator at 37° C. at an atmospheric pressure in 5% (v/v) carbon dioxide/air. After five days of culturing, spheres greater than 50 μm in diameter were counted using an eye piece graticule, and the percentage of cells plated which formed spheres was calculated. Mammosphere assays were performed in triplicate and repeated three times independently.

CSC propagation = test: IC-50s of metabolic agents for inhibiting CSC propagation (Table 3); conditions: read-out: IC-50 for inhibiting CSC propagation
Protocol: Glycolysis is required to provide additional TCA cycle intermediates for the mitochondrial processing of Acetyl-CoA. […] Briefly, 2-deoxy-D-glucose (2-DG) or ascorbic acid were dissolved in culture medium. […] Bonuccelli et al. Oncotarget, 8: 20667-20678 (2017). […] 15, 2017, and Patent Cooperation Treaty (PCT) Patent Application PCT/US2018/022403, filed Mar. 14, 2018, the entireties of which are incorporated herein by reference; mitoketoscins, such as those disclosed in U.S. Provisional Patent Application No. 62/524,829, filed Jun. 26, 2017, the entirety of which is incorporated herein by reference; mitoflavoscins, such as those disclosed in U.S. Provisional Patent Application No. 62/576,287, filed Oct. 24, 2017, the entirety of which is incorporated herein by reference; TPP-compounds (e.g., 2-butene-1,4-bis-TPP), such as those disclosed in U.S. Provisional Patent Application No. 62/590,432, filed Nov. 24, 2017, the entirety of which is incorporated herein by reference; mDIVI1, such as those disclosed in U.S. Provisional Patent Application No. 62/608,065, filed Dec. 20, 2017, the entirety of which is incorporated herein by reference; CAPE (caffeic acid phenyl ester); antimitoscins, such as those disclosed in 62/508,702, filed May 19, 2017, the entirety of which is incorporated herein by reference; repurposcins such as those disclosed in U.S. Provisional Patent Application No. 62/593,372, filed Dec. 1, 2017, the entirety of which is incorporated herein by reference; other known mitochondrial inhibitors.

MCF7 cells [2] = test: ALDH activity by FACS (ALDEFLUOR kit); conditions: 2.5 mM; FIGS. 11C-D
Protocol: The present approach further includes methods of analyzing the effects of hypoxia on CSCs by examining relative changes of CSC markers. For example, aldehyde dehydrogenase (ALDH) activity is routinely used as a marker for CSCs. It should be appreciated by those in the art that other CSC markers may be used. ALDH activity was assessed by FACS analysis in MCF7 cells cultured for 72 hours in normoxia (21% 02) or hypoxia (1% 02). The ALDEFLUOR kit (StemCell Technologies) was used to isolate the population with high ALDH enzymatic activity by FACS (Fortessa, BD Bioscence). Briefly, 1×10^5 MCF7 cells were incubated in 1 ml ALDEFLUOR assay buffer containing ALDH substrate (5 μl/ml) for 40 minutes at 37° C. In each experiment, a sample of cells was stained under identical conditions with 30 μM of diethylaminobenzaldehyde (DEAB), a specific ALDH inhibitor, as a negative control. The ALDEFLUOR-positive population was established in according to the manufacturer's instructions and was evaluated in 3×10^4 cells. Data analysis was performed using FlowJo software (Tree star Inc.).

MCF7 cells [3] = test: Mitochondrial mass by FACS with MitoTracker Deep-Red-FM; conditions: increasing concentrations 0, 1, 2.5 and 5 mM; FIG. 11A
Protocol: The inventors examined the effects of chronic hypoxia and oxidative stress on the propagation of breast CSCs using MCF7 cells as a model system. It should be appreciated that other model systems may be used. Briefly, MCF7 cells were obtained from ATCC and cultured in DMEM (Sigma Aldrich). For hypoxic testing, MCF7 cells were cultured in low glucose DMEM in a multi-gas N2/CO2 hypoxic chamber at 1% 02. In parallel, MCF7 cells were cultured in low glucose DMEM at 21% 02 to serve as a normoxic control. […] Next, the MCF7 cells were trypsinized and subjected to fluorescence-activated cell sorting (FACS) with MitoTracker Deep-Red-FM (Life Technologies). MitoTracker Deep Red localizes to mitochondria regardless of mitochondrial membrane potential. Cells were incubated with pre-warmed MitoTracker staining solution (diluted in PBS/CM to a final concentration of 10 nM) for 30-60 min at 37° C. All subsequent steps were performed in the dark. Cells were washed in PBS, harvested, re-suspended in 300 μL of PBS and then analyzed by flow cytometry (Fortessa, BD Bioscience). Data analysis was performed using FlowJo software (Tree star Inc.). […] FIG. 2F is a representative FACS tracing showing 96 hours of hypoxia increased mitochondrial mass. The effects of hypoxia treatment were confirmed using immunoblot analysis with TOMM20, a marker of mitochondrial mass.

IC50 (MCF7 cells [1]): 1000 µM | IC50 (CSC propagation; Table 3, values in mM): 10 to 20 mM
SMILES: O=CC[C@@H](O)[C@H](O)[C@H](O)CO [2-DG, 2-deoxy-D-glucose]
Valproic acid-augmented CSC propagation (mammosphere formation) (MCF7 cells [1]): sufficient to inhibit

IC50 (CSC propagation; Table 3, values in mM): 0.001 mM
SMILES: O=C1C(O)=C([C@H]2CC[C@H](c3ccc(Cl)cc3)CC2)C(=O)c2ccccc21 [Atovaquone]

IC50 (CSC propagation; Table 3, values in mM): 0.05 to 0.1 mM
SMILES: CC[C@H]1OC(=O)[C@H](C)[C@@H](O[C@H]2C[C@@](C)(OC)[C@@H](O)[C@H](C)O2)[C@H](C)[C@@H](O[C@@H]2O[C@H](C)C[C@H](N(C)C)[C@H]2O)[C@](C)(O)C[C@@H](C)CN(C)[C@H](C)[C@@H](O)[C@]1(C)O [Azithromycin]

IC50 (CSC propagation; Table 3, values in mM): 0.001 mM
SMILES: COc1nc2ccc(Br)cc2cc1[C@@H](c1ccccc1)[C@@](O)(CCN(C)C)c1cccc2ccccc12 [Bedaquiline]

IC50 (CSC propagation; Table 3, values in mM): 0.001 mM
SMILES: COc1ccc2cc3[n+](cc2c1OC)CCc1cc2c(cc1-3)OCO2 [Berberine]

IC50 (CSC propagation): < 0.025 mM
SMILES: CCN(CC)CCCC(C)Nc1ccnc2cc(Cl)ccc12 (stereo not shown) [Chloroquine]

IC50 (CSC propagation; Table 3, values in mM): 0.005 mM
SMILES: C[C@H]1c2cccc(O)c2C(=O)C2=C(O)[C@]3(O)C(=O)C(C(N)=O)=C(O)[C@@H](N(C)C)[C@@H]3[C@@H](O)[C@@H]21 [Doxycycline]

IC50 (CSC propagation; Table 3, values in mM): < 0.2 mM
SMILES: CCOC(=O)[C@@]1(CCCCCCOc2ccc(Cl)cc2)CO1 [Etomoxir]
basal and Valproic acid-augmented CSC propagation (mammosphere formation) (MCF7 cells [1]): inhibit

IC50 (CSC propagation; Table 3, values given with nM): 0.0005 mM
SMILES: CCc1c2c(nc3ccc(OC(=O)N4CCC(N5CCCCC5)CC4)cc13)-c1cc3c(c(=O)n1C2)COC(=O)[C@]3(O)CC [Irinotecan]

IC50 (CSC propagation; Table 3, values given with nM): 0.0001 mM
SMILES: O=C(Nc1ccc([N+](=O)[O-])cc1Cl)c1cc(Cl)ccc1O [Niclosamide]

SMILES: CC(=O)O[C@H]1C(=O)[C@@]2(C)[C@H]([C@H](OC(=O)c3ccccc3)[C@]3(O)C[C@H](OC(=O)[C@H](O)[C@@H](NC(=O)c4ccccc4)c4ccccc4)C(C)=C1C3(C)C)[C@]1(OC(C)=O)CO[C@@H]1C[C@@H]2O [Paclitaxel]
CSC resistance to treatment (measured by mammosphere formation) (MCF7 cells [1]; MCF7 cells, FIGS. 5A-B): a fraction of CSCs is resistant

IC50 (CSC propagation; Table 3, values given with nM): < 0.0001 mM
SMILES: C1CCC(C(CC2CCCCN2)C2CCCCC2)CC1 (stereo not shown) [Perhexiline]
basal and Valproic acid-augmented CSC propagation (mammosphere formation) (MCF7 cells [1]): inhibit

IC50 (CSC propagation; Table 3, values in mM): 0.0005 to 0.001 mM
SMILES: CNC(=O)c1cc(Oc2ccc(NC(=O)Nc3ccc(Cl)c(C(F)(F)F)c3)cc2)ccn1 [Sorafenib]

IC50 (CSC propagation; Table 3, values in mM): 0.01 to 0.05 mM
SMILES: CC(C)(C)C(O)/C=C/c1ccc2c(c1)OCO2 (stereo not shown) [Stiripentol]

SMILES: CCCC(CCC)C(=O)O [Valproic acid]
increase in ALDH activity (MCF7 cells [2]): > 1.5 fold | increase in mitochondrial mass (MCF7 cells [3]): up to 3 fold | mammosphere formation (MCF7 cells [1]; MCF7 cells, FIG. 11B): increases

IC50 (MCF7 cells [1]): ~500 µM | IC50 (CSC propagation; Table 3, values in mM): 1 mM
SMILES: O=C1O[C@H]([C@@H](O)CO)C(O)=C1O [Vitamin C, ascorbic acid]
Valproic acid-augmented CSC propagation (mammosphere formation) (MCF7 cells [1]): sufficient to inhibit | potency under Valproic acid-augmented conditions compared to basal conditions (MCF7 cells [1]; versus previously published results under basal conditions (Bonuccelli et al. 2017)): two times as potent
